Laboratory results as given in PMC9032695, “Self-Assembled Alkylated Polyamine Analogs as Supramolecular Anticancer Agents” (Molecules, 2022).
“And” between values parts separate entries of the source, which are not always exact repeats. Equal entries are not always repeated. Where two headings read alike, the source gives them in different places.

Assays:
[1] = Hydrodynamic size and zeta potential of self-assembled nanoparticles (DLS); type: physicochemical; details: self-assembled in aqueous solution; for PDI: DLS; for Particle Size: hydrodynamic size by DLS
Description: To achieve self-assembly, each sample was dispersed in aqueous solution under sonication (Branson Ultrasonic, working frequency […] at room temperature) for 30 min. Thereafter, the sample was allowed to undergo self-assembly by keeping it undisturbed for another 30 min. The size and surface zeta potential of the self-assembled nanoparticles were analyzed using a Brookhaven NanoBrook (Holtsville, NY, USA) Omni particle size and zeta potential analyzer, respectively.

HCT116 cells = experiment: CellTiter-Blue cell viability assay, HCT116; type: cell-based; details: Homo sapiens, HCT-116, 24 h incubation
Description: (§1) The human non-small cell lung carcinoma cell lines A549 (ATCC CCL-185) were maintained in RPMI 1640 medium containing 9% bovine calf serum, penicillin, and streptomycin at 37 °C, 5% CO2. For all experiments, cells were seeded and allowed to attach overnight. The medium was then aspirated and replaced with that containing polyamine PG analogs at the indicated concentrations. Cells were incubated for the times indicated at 37 °C, 5% CO2. The HCT 116 (ATCC CCL-247) human colorectal carcinoma cell lines were grown in McCoy’s 5 A medium (Thermo Fischer Scientific, Waltham, MA, USA), supplemented with 10% FBS at 37 °C with 5% CO2 in a humidified chamber.
(§2) The cytotoxicity of the HPG analogs was evaluated in HCT116 and A549 cells by the Promega CellTiter Blue Cell viability assay. The cells were seeded in 96-well plates at a density of four thousand cells/well 24 h before the polyamine treatment. The original medium was replaced with serial dilutions of the PG analogs in a cell culture medium and incubated for another 24 h. The mixture of 100 μL cell culture medium and 20 μL CellTiter Blue reagent was added into each well after the removal of the media with polyamines. After 2 h of incubation, the fluorescence intensity [FI] was measured at λex/λem = 560/590 nm by a microplate reader (Molecular Devices, San Jose, CA, USA). The relative cell viability (%) was calculated as [FI]treated/[FI]untreated × 100. Polyamine concentration, causing a 50% decrease in the cell viability, was defined as IC50 and auto-calculated in GraphPad Prism 9.0.0 (Prism 9, San Diego, CA, USA) with the dose–response analysis.

A549 cells = experiment: CellTiter-Blue cell viability assay, A549; type: cell-based; details: Homo sapiens, 24 h incubation
Description: as §1, §2

[2] = TEM imaging of self-assembled nanoparticles; type: physicochemical
Description: A 10 µL volume of nanoparticle dispersion was meticulously placed on a plasma-treated copper grid (carbon-coated). After 5 min, the excess volume of nanoparticles was absorbed by a regular filter paper. The grid was then stained with 2% phosphotungstic acid (6 µL) for 1 min, and, similarly, the excess staining solution was absorbed by a regular filter paper. The grid was then allowed to dry in air for another 5 min. The image was captured under an FEI-Tecnai G2 transmission electron microscope (Hillsboro, OR, USA) at 80 kV, equipped with an AMT digital imaging system (Woburn, MA, USA).

[3] = target: T1, purified recombinant human SMOX protein (Homo sapiens, UniProt Q9NWM0); experiment: SMOX activity assay (luminol-based chemiluminescence); type: biochemical; details: for IC50: purified recombinant human SMOX, pH 8.0, 37 °C; for fold activity compared to MDL72527, SMOX: ratio of IC50 values
T1 sequence (Q9NWM0 whole entry): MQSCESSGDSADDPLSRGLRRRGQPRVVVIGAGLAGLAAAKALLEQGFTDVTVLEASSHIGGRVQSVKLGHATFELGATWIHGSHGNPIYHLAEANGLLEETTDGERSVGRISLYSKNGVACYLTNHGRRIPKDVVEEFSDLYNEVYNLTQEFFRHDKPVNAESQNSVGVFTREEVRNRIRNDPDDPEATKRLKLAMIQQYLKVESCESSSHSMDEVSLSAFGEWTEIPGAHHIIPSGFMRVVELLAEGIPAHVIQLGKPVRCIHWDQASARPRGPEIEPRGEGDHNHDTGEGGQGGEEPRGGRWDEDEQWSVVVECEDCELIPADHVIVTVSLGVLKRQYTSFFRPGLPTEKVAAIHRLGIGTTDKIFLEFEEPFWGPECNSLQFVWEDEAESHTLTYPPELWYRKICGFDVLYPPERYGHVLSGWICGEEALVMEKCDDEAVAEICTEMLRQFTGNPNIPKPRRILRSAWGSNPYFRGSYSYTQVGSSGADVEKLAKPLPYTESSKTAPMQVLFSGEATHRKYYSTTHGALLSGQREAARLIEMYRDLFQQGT
Description: SMOX activity was measured using a chemiluminescent enzyme-based assay, detecting the formation of H2O2 in the presence of HPG analogs as the substrate, as described. To measure the activity of these polyamines against SMOX, the enzyme (300 ng) in 0.083 M glycine buffer (pH 8.0) and the inhibitor (0–250 µM) were added to the luminol-HRP master mix and incubated at 37 °C for 2 min. PG was then added to the reaction mixture at a final concentration of 250 µM, vortexed for 3 s, and chemiluminescence was integrated over 40 s. Data were averaged and normalized to the blank reaction (no inhibitor) as % SMOX activity. Inactivated SMOX served as a negative control and was accounted for in the calculations.

[4] = target: T1, purified recombinant human SMOX protein; parameters: method as in PMID 33173604; details: purified enzyme, reference inhibitor, ref [21], cited from earlier work
A549 xenograft = system: A549 xenograft; parameters: method as in PMID 17464296, PMID 18301893, PMID 19487545; details: in vivo A549 xenograft model; ref [1],[9],[10]; cited from earlier work
colon cancer cells = system: colon cancer cells; parameters: method as in PMID 19487545; details: ref [10]; cited from earlier work
[5] = system: small (NCI H82 and H69) and non-small (NCI A549 and H157) lung cancer cells; parameters: method as in PMID 18301893; details: ref [9]; cited from earlier work

Structure (SMILES)	PDI [1]	Particle Size [1]	Particle Size ([1]; listed as HPG2)	Zeta Potential [1] [mV]	IC50 (HCT116 cells) [µM]	IC50 (A549 cells) [µM]	average size obtained from TEM [2] [nm]	IC50 [3] [µM]	fold activity compared to MDL72527, SMOX [3]	IC50 [4] [µM]	IC50 ([4]; listed as MDL 72,527) [µM]	progression of established tumors (A549 xenograft)	anticancer activity in colon cancer cells (colon cancer cells)	growth inhibition of lung cancer cells in vitro [5]
CCCNCCCNC/C=C\CNCCCNCCC [HPG-2, (Z)-N^1,N^1′-(but-2-ene-1,4-diyl)bis(N^3-propylpropane-1,3-diamine)]	0.21	173 ± 7 nm	around 173 nm	27	< 1	< 1								
CCCCNCCCNC/C=C\CNCCCNCCCC [HPG-3, (Z)-N^1,N^1′-(but-2-ene-1,4-diyl)bis(N^3-butylpropane-1,3-diamine)]	0.064	186 ± 3 nm		24	8	> 10								
CCCCCNCCCNC/C=C\CNCCCNCCCCC [HPG-4, (Z)-N^1,N^1′-(but-2-ene-1,4-diyl)bis(N^3-pentylpropane-1,3-diamine)]	0.15	174 nm and 174 ± 3 nm		15	> 10	10	6							
CCCCCCNCCCNC/C=C\CNCCCNCCCCCC [HPG-5, (Z)-N^1,N^1′-(but-2-ene-1,4-diyl)bis(N^3-hexylpropane-1,3-diamine)]	0.23	158 ± 4 nm		16	8	7		90						
CCCCCCCNCCCNC/C=C\CNCCCNCCCCCCC [HPG-6, (Z)-N^1,N^1′-(but-2-ene-1,4-diyl)bis(N^3-heptylpropane-1,3-diamine)]	0.17	225 nm and 225 ± 6 nm		22	3	3	8	30						
CCCCCCCCNCCCNC/C=C\CNCCCNCCCCCCCC [HPG-7, (Z)-N^1,N^1′-(but-2-ene-1,4-diyl)bis(N^3-octylpropane-1,3-diamine)]	0.13	318 ± 8 nm		11	1	< 1	30	< 10	around nine-fold more active than MDL 72,527					
CCCCCCCCCNCCCNC/C=C\CNCCCNCCCCCCCCC [HPG-8, (Z)-N^1,N^1′-(but-2-ene-1,4-diyl)bis(N^3-nonylpropane-1,3-diamine)]	0.17			17	< 1	7		< 10	around nine-fold more active than MDL 72,527					
C=C=CCNCCCCNCC=C=C [MDL72527]										90	~90			
CCNCCCNC/C=C\CNCCCNCC [PG11047, (Z)-N^1,N^1′-(but-2-ene-1,4-diyl)bis(N^3-ethylpropane-1,3-diamine)]					8	> 10						significantly delay the progression of established tumors	broad spectrum of anticancer activity	inhibits the growth
